This passage reports inhibition in vivo, ED50 and Challenge time results from ChEMBL document CHEMBL1122248, “Cloxacepride and related compounds: a new series of orally active antiallergic compounds” (1983).

For test [1], the system named is Rattus norvegicus. The experiment in a line: Tested for PCA activity of compound in rat at 5 mg/kg intravenous dose. Type of test: functional.
In test [2] the test system is Rattus norvegicus. Briefly: Tested for anti PCA- activity when compound was administered intravenously 60 min before challenge in rat. The test is classed as functional. The following applies: iv.
Test [3] concerns Rattus norvegicus. The experiment in a line: Tested for antigenic challenge time, time measured was immediate when compound was administered before challenge in rat;Immed = Immediate. Type of test: functional, organism-based.
Test [4] has as its system Rattus norvegicus. The experiment in a line: Tested for PCA activity of compound in rat at 2.5 mg/kg intravenous dose. The test is classed as functional.
Test [5] relates to Rattus norvegicus. The experiment in a line: Tested for PCA activity of compound in rat at 1.0 mg/kg intravenous dose. The test is classed as functional.
Test [6] deals with Rattus norvegicus. Briefly: Tested for antigenic challenge time, time measured was immediate when compound was administered before challenge in rat; Immed = Immediate. The test is classed as functional, organism-based.
The subject of test [7] is Rattus norvegicus. Briefly: PCA activity of compound in rat at 100 mg/kg dose. The test is classed as functional.
Test [8] relates to Rattus norvegicus. Briefly: Tested for PCA activity in rat at 200 mg/kg dose. The test is classed as functional.
In test [9] the test system is Rattus norvegicus. Briefly: Tested for PCA activity of compound in rat at 50 mg/kg dose at 60 min challenge time. Type of test: functional. The following applies: 1 h.
For test [10], the system named is Rattus norvegicus. The experiment in a line: Tested for anti PCA- activity when compound was administered orally 60 min before challenge in exp1. Type of test: functional. As to conditions: po.
For test [11], the system named is Rattus norvegicus. Briefly: Tested for anti PCA- activity when compound was administered orally 60 min before challenge in exp2. The following applies: po. Type of test: functional.
The test system of test [12] is Rattus norvegicus. Briefly: Tested for PCA activity of compound in rat at 50 mg/kg dose. Type of test: functional.
Test [13] deals with Rattus norvegicus. The experiment in a line: Tested for anti PCA- activity when compound was administered perorally 60 min before challenge in. The test is classed as functional. The following applies: po.
Test [14] relates to Rattus norvegicus. The experiment in a line: Tested for PCA activity of compound in rat at 25 mg/kg dose. Type of test: functional.
Test [15] has as its system Rattus norvegicus. Briefly: Tested for PCA activity of compound in rat at 10 mg/kg intravenous dose. Type of test: functional.
Test [16] deals with Rattus norvegicus. Briefly: Tested for antigenic challenge time, time measured was immediate when compound was administered before challenge in rat; immediate. Type of test: functional, organism-based.

Structures are written as SMILES.

By inhibition in vivo is commonly meant the share of the control response that was lost under treatment. What is called ED50 is the dose at which the effect has come halfway, by size or by number of responders. In the test with Rattus norvegicus [1], `O=C([O-])c1cc(=O)c2c(OCC(O)COc3cccc4oc(C(=O)[O-])cc(=O)c34)cccc2o1.[Na+].[Na+]` [CROMOLYN SODIUM] came in with an inhibition in vivo at 5 mg/kg of 78%. The compound also registered an ED50 in the test with Rattus norvegicus [2] of 2 mg/kg. Moreover, the Challenge time result with Rattus norvegicus [3] and with Rattus norvegicus [6] was “Immed” each time. The compound also yielded an inhibition in vivo at 2.5 mg/kg in the test with Rattus norvegicus [4] of 58%. The compound also came in with an inhibition in vivo at 1 mg/kg with Rattus norvegicus [5] of 28%.

For `CCN(CC)CCNC(=O)c1cccc(NC(=O)COc2ccc(Cl)cc2)c1`, the inhibition in vivo at 100 mg/kg with Rattus norvegicus [7] was found to be 7%.

Take `CCN(CC)CCNC(=O)c1cc(Cl)ccc1NC(=O)COc1ccc(F)cc1`: in the test with Rattus norvegicus [7], at 100 mg/kg the inhibition in vivo was 0%. Consider `CCN(CC)CCNC(=O)c1cc(Cl)c(NC(=O)CSc2ccccc2)cc1OC`, for which the inhibition in vivo at 100 mg/kg in the test with Rattus norvegicus [7] worked out at 26%. In the test with Rattus norvegicus [8], `CCN(CC)CCNC(=O)c1cc(Cl)c(NC(=O)COc2ccc(F)cc2)cc1OC` registered an inhibition in vivo at 200 mg/kg of 67%. Besides, in the test with Rattus norvegicus [7], testing at 100 mg/kg gave an inhibition in vivo of 33%. In turn, `CCN(CC)CCNC(=O)c1ccc(NC(=O)COc2ccc(Cl)cc2)c(OC)c1` displayed an inhibition in vivo at 200 mg/kg in the test on Rattus norvegicus [8] of 20%. `CCN(CC)CCNC(=O)c1cc(Cl)ccc1NC(=O)COc1ccc(Cl)cc1`: the inhibition in vivo at 100 mg/kg with Rattus norvegicus [7] is 0%. In the case of `CCN(CC)CCNC(=O)c1cc(Cl)c(NC(=O)COc2cccc(Cl)c2Cl)cc1OC`, the inhibition in vivo at 200 mg/kg in the test with Rattus norvegicus [8] stood at 0%. As for `CCN(CC)CCNC(=O)c1cc(Cl)c(NC(=O)COc2ccc(OC)cc2)cc1OC.Cl`, at 200 mg/kg the inhibition in vivo in the test with Rattus norvegicus [8] was 33%. This compound also yielded an inhibition in vivo at 100 mg/kg in the test with Rattus norvegicus [7] of 53%. In the test on Rattus norvegicus [7], `COc1cc(NC(=O)COc2ccc(Cl)cc2)c(Cl)cc1C(=O)N1CCN(C(c2ccccc2)c2ccccc2)CC1` came in with an inhibition in vivo at 100 mg/kg of 0%. Same read-out and setting: as for `CCN(CC)CCNC(=O)c1cc(Cl)c(NC(=O)COc2ccc(C)cc2)cc1OC`, the figure is 22%.

Turning to `CCN(CC)CCNC(=O)c1cc(Cl)c(NC(=O)C(C)(C)Oc2ccc(Cl)cc2)cc1OC.Cl`, the inhibition in vivo at 200 mg/kg with Rattus norvegicus [8] was found to be 20%. In the test on Rattus norvegicus [7], this compound displayed an inhibition in vivo at 100 mg/kg of 0%. Consider `CCN(CC)CCNC(=O)c1ccc(NC(=O)COc2ccc(Cl)cc2)c(Cl)c1.O=C(O)CC(O)(CC(=O)O)C(=O)O`, for which the inhibition in vivo at 200 mg/kg in the test with Rattus norvegicus [8] was found to be 0%. Further, 100 mg/kg produced 14% inhibition in vivo in the test on Rattus norvegicus [7].

Regarding `CCN(CC)CCNC(=O)c1cc(Cl)c(NC(=O)CNc2ccccc2)cc1OC`, the inhibition in vivo at 100 mg/kg with Rattus norvegicus [7] was 5%. In turn, `CCN(CC)CCNC(=O)c1cc(Cl)c(NC(=O)COc2ccc(I)cc2)cc1OC` showed an inhibition in vivo at 200 mg/kg with Rattus norvegicus [8] of 27%. The inhibition in vivo at 100 mg/kg in the test with Rattus norvegicus [7] turned out to be 0%. As for `CCN(CC)CCNC(=O)c1cc(Cl)c(NC(=O)COc2ccc(Cl)cc2Cl)cc1OC`, in the test on Rattus norvegicus [8], the inhibition in vivo at 200 mg/kg was found to be 0%. In the test on Rattus norvegicus [8], `CCOC(=O)c1cc(Cl)c(NC(=O)COc2ccc(Cl)cc2)cc1OC` came in with an inhibition in vivo at 200 mg/kg of 20%. In addition, 100 mg/kg produced 93% inhibition in vivo in the test with Rattus norvegicus [7]. The compound `CCN(CC)CCCNC(=O)c1cc(Cl)c(NC(=O)COc2ccc(Cl)cc2)cc1OC` registered an inhibition in vivo at 200 mg/kg in the test on Rattus norvegicus [8] of 20%. Same read-out and setting: as for `CCN(CC)CCNC(=O)c1cc(Cl)c(NC(=O)COc2ccccc2Cl)cc1OC`, the figure is 0%. As to `CCN(CC)CCNC(=O)c1cc(Cl)c(NC(=O)COc2ccc(Cl)cc2)cc1OC.Cl` [CLOXACEPRIDE HYDROCHLORIDE], in the test with Rattus norvegicus [9], testing at 50 mg/kg gave an inhibition in vivo of 49%. Further, the values for the ED50 with Rattus norvegicus [10] and with Rattus norvegicus [11] were 49 mg/kg and 46.9 mg/kg, respectively. Moreover, at 200 mg/kg the inhibition in vivo in the test on Rattus norvegicus [8] was 75%. Further, the inhibition in vivo at 100 mg/kg with Rattus norvegicus [7] is 69%. For `CCN(CC)CCNC(=O)c1cc(Cl)c(NC(=O)C(C)Oc2ccc(Cl)cc2)cc1OC.Cl` (stereo not drawn), the results for the ED50 in the test with Rattus norvegicus [10] and in the test with Rattus norvegicus [11] were 64.5 mg/kg and 60.9 mg/kg, respectively. 200 mg/kg produced 32% inhibition in vivo with Rattus norvegicus [8]. Moreover, the inhibition in vivo at 100 mg/kg in the test with Rattus norvegicus [7] stood at 62%. The inhibition in vivo at 50 mg/kg in the test on Rattus norvegicus [12] was found to be 41%. `CCN(CC)CCNC(=O)c1cc(Cl)c(NC(=O)COc2cccc(C(F)(F)F)c2)cc1OC.Cl` had an inhibition in vivo at 200 mg/kg in the test on Rattus norvegicus [8] of 40%. Testing at 100 mg/kg in the test on Rattus norvegicus [7] gave an inhibition in vivo of 53%. For the compound `CCN(CC)CCNC(=O)c1ccc(NC(=O)COc2ccccc2)c(OC)c1`, in the test with Rattus norvegicus [8], the inhibition in vivo at 200 mg/kg was found to be 20%. Same read-out and setting: as for `COc1cc(NC(=O)COc2ccc(Cl)cc2)c(Cl)cc1NCCN1CCCC1`, the figure is 20%.

Compound `Cn1c(=O)c2nc[nH]c2n(C)c1=O.O` [THEOPHYLLINE] registered an ED50 in the test with Rattus norvegicus [13] of 47.2 mg/kg. For `CCN(CC)CCNC(=O)c1cc(Cl)c(NC(=O)C(Oc2ccc(Cl)cc2)Oc2ccc(Cl)cc2)cc1OC`, in the test on Rattus norvegicus [8], the inhibition in vivo at 200 mg/kg was found to be 0%.

`COc1cc(NC(=O)COc2ccc(Cl)cc2)c(Cl)cc1C(=O)NCc1cccnc1` displayed an inhibition in vivo at 200 mg/kg in the test on Rattus norvegicus [8] of 20%.

On to `CCN(CC)CCNC(=O)c1cc(NC(=O)COc2ccc(Cl)cc2)ccc1OC(C)=O`, for which, in the test on Rattus norvegicus [7], 100 mg/kg produced 0% inhibition in vivo. With `CCN(CC)CCNC(=O)c1cc(Cl)c(NC(=O)COc2ccccc2)cc1OC`, the inhibition in vivo at 200 mg/kg in the test on Rattus norvegicus [8] was 67%. This compound also registered an inhibition in vivo at 100 mg/kg in the test with Rattus norvegicus [7] of 47%. `CCN(CC)CCNC(=O)c1ccc(Cl)c(NC(=O)COc2ccc(Cl)cc2)c1` displayed an inhibition in vivo at 100 mg/kg in the test on Rattus norvegicus [7] of 7%. As for `COc1cc(NC(=O)COc2ccc(Cl)cc2)c(Cl)cc1C(=O)N1CCN(C)CC1`, in the test on Rattus norvegicus [7], the inhibition in vivo at 100 mg/kg was 0%. The same measure, in the same setting: in the case of `COc1cc(NC(=O)COc2ccc(Cl)cc2)c(Cl)cc1C(=O)N1CCN(C/C=C/c2ccccc2)CC1` it was 0%.

On to `CCN(CC)CCNC(=O)c1cc(Cl)c(NC(=O)COc2ccc(Cl)c(Cl)c2)cc1OC.Cl`, for which the inhibition in vivo at 200 mg/kg with Rattus norvegicus [8] was 0%. Besides, testing at 100 mg/kg in the test on Rattus norvegicus [7] gave an inhibition in vivo of 0%. `CCN1CCCC1CNC(=O)c1cc(Cl)c(NC(=O)COc2ccc(Cl)cc2)cc1OC` (stereo not drawn) showed an inhibition in vivo at 25 mg/kg with Rattus norvegicus [14] of 53%. This compound yielded an inhibition in vivo at 50 mg/kg in the test with Rattus norvegicus [12] of 60%. As for `CCN(CC)CCNC(=O)c1ccc(NC(=O)COc2ccc(Cl)cc2)cc1`, in the test with Rattus norvegicus [8], testing at 200 mg/kg gave an inhibition in vivo of 0%. In the test on Rattus norvegicus [7], `O=C(O)c1ccc2oc3ccc(OCCO)cc3c(=O)c2c1` showed an inhibition in vivo at 100 mg/kg of 71%. `CCN(CC)CCNC(=O)c1cc(Cl)c(N)cc1OC` [METOCLOPRAMIDE]: testing at 10 mg/kg in the test with Rattus norvegicus [15] gave an inhibition in vivo of 84%. Besides, the Challenge time entry in the test on Rattus norvegicus [16] is reported as “Immediate”. For the same compound, the inhibition in vivo at 100 mg/kg in the test with Rattus norvegicus [7] was 14%.

`COc1cc(NC(=O)COc2ccc(Cl)cc2)c(Cl)cc1C(=O)O`: the inhibition in vivo at 200 mg/kg in the test with Rattus norvegicus [8] came to 0%.
